# According to US4933336A, “Thiadiazinone, oxadiazinone and triazinone derivatives, and their use for treating acute or chronic heart disease” (Laboratoires Sobio S.A., priority 1987, dated 1990):
# Like-named read-outs stand apart in the source and are kept apart here.
# Tests used:
# [1] = system: conscious instrumented Dog; experiment: Cardiotonic activity in the conscious instrumented Dog; type: in vivo, dog (male Beagle); settings: Canis lupus familiaris, po; for change in vivo at 0.3 mg/kg: 0.30 mg/kg p.o.; for change in vivo at 3 mg/kg: 3.00 mg/kg p.o.; for change in vivo at 1 mg/kg: 1.00 mg/kg p.o.; for change in vivo at 0.1 mg/kg: 0.10 mg/kg p.o.
# Procedure: Cardiotonic activity in the conscious instrumented Dog
# Male Beagle dogs, at least 2 years old, weighing 12 to 18 kg were anaesthetised with pentobarbital sodium (30 mg/kg i.v.). Respiration was maintained by a Harward pump, model 613a. The heart was exposed through a left thoracotomy and a pericardial cardle was formed. A high fidelity micromanometer (Koenigsberg P5 -P7) was inserted into left venitricular lumen through a stab incision at the apex. Wires were exteriorised to the back of the animals, placed into a size adapted jacket, and the chest closed. The experiments were conducted on the conscious dogs, 1 or 2 weeks after the surgery, when the animals had completely recovered.
# Measured parameters were : first derivative of left ventricular pressure, (dP/dt, mmHg/sec); heart rate (HR, beats/min.). A control period recording of 90 min. was made with the dogs placed in a quiet room, the recordings being made outside. Compounds to be tested were administered orally in gelatin capsules and the parameters measured for 5 hrs. at least.
# Results were expressed as the percentage of the maximum±SEM.
# [2] = system: Canine cardiac myofibrillar Ca++-dependent Mg++ ATPase; experiment: Measurement of myofibrillar Ca++-dependent Mg++ATPase activity (Ca++ sensitivity and maximal activity); type: biochemical, canine (dog); settings: pH 7.0, 21° C.
# Procedure: 1. Measurement of myofibrillar Ca++-dependent Mg++ATPase activity
# the effect on myofibrillar Ca++sensitivity and on maximal activity of myofibrillar Ca++-dependent Mg++-ATPase was determined on canine cardiac myofibrils.
# (a) Contractile protein preparation
# Cardiac myofibrils free of membrane contaminants were prepared from left ventricular tissue of dog hearts using a modification of the method described by SOLARO et al, Biochem. Biophys. Acta, 245, 259-262, (1971). Before centrifugration, the heart homogenate was filtered through gauze.
# After Triton X-100 treatments, the myofibrillar fraction was washed once by resuspension and centrifugation in 10 volumes of 1 mM EGTA, […], 30 mM imidazole, 2 mM MgCl2, pH 7.0. The pellet was then washed three times in 10 volumes of the same buffer without EGTA. Before the last centrifugation, the suspension of myofibrils was filtered through a stainless steel sieve with 0.25 mm meshes.
# Myofibrils were kept in pellet overnight. Before use, the pellet was suspended in a small amount of buffer, the protein concentration was determined by the method of BRADFORD M., Anal. Biochem., 1976, 72, 248 and adjusted in order to have a concentration between 6 and 7 mg/ml.
# (b) Myofibrillar ATPase activity
# Ca++-dependent myfibrillar ATPase activity was determined at 21° C., pH 7.0, by measuring the rate of release of inorganic phosphate. All assays were performed within 24 hrs. of final purification, using the method described by SOLARO and RUEGG, CIRC. RES., 51, 290-4, (1982). Reaction mixtures (4 ml) containing 0.6-0.7 mg/ml myofibrillar protein, 80 mM KCl, 20 mM imidazole, 3 mM […], 1 mM EGTA, the desired amount of CaCl2, and the indicated concentration of drug or appropriate vehicle were preincubated for 6 min. prior to assay. The amount of CaCl2 was varied between 0 and 0.9 mM and the pCA (-log free Ca++) computed using 2.514×10^6 M^-1 as the apparent affinity of Ca++for EGTA at pH 7.0.
# Reactions were initiated by the addition of Na2 ATP to final concentration of 2 mM. After an incubation period of 12 min., reactions were quenched by the addition of an equal volume of ice-cold 10% trichloroacetic acid. The protein was pelleted by centrifugation (2000 g, 15 min.) and Pi was assayed in the supernatant fraction using a modification of the method described by LANZETTA et al, Anal. Biochem., 100, 95-97, (1979).
# The following solutions were prepared:
# (1) 3.7% ammonium heptamolybdate in 0.12N H2 SO4
# (2) 0.074% malachite green oxalate in 1% polyvinylic alcohol.
# the colour reagent was prepared by mixing an equal volume of solution (1) and (2) 15 min. before the assay. For the assay, 1700 μl of 1% H2 SO4 and 1 ml of colour reagent were added to 100 μl of sample. Colour development occurred at room temperature for 30 min. and was quenched by the addition of 200 μl of 1M tri-potassium citrate. The absorbance was measured at 620 millimicrons.
# The effect of each compound, tested at the indicated concentration, on the relation between pCa and percent activation was determined taking 100% for the maximum ATPase activity obtained with vehicle alone. The effect on Ca++ sensitivity was quantified by measuring the shift of the pCa giving 50% of the maximal control ATPase activity.
# The effect on maximal ATPase activity was expressed as the percent change of ATPase activity for pCa=5.47.
# [3] = read-out: H.R. (heart rate), percentage of the maximum ± SEM
# [4] = read-out: dP/dt Max (first derivative of left ventricular pressure), percentage of the maximum ± SEM
Compound,Max ATPase activity (%) (percent change of ATPase activity for pCa=5.47) ([2]; 3 × 10^-5 molar),Ca2+ sensitivity p CA50 (shift of the pCa giving 50% of the maximal control ATPase activity) ([2]; 3 × 10^-5 molar),"change in vivo at 0.3 mg/kg [1, 3]","change in vivo at 0.3 mg/kg [1, 4]",also measured
"CC1SC(=O)NN=C1c1ccc2c(c1)C(C)(C)C(=O)N2C (stereo not drawn) [Example 18, 1,3-Dihydro-5-(3,6-dihydro-6-methyl-2-oxo-2H-1,3,4-thiadiazin-5-yl)-1,3,3-trimethyl-2H-indol-2-one]",+3 ± 3%,0.19 ± 0.03,28%,74%,
"O=C1NN=C(c2ccc3c(c2)C2(CCCS2)C(=O)N3)CS1 (stereo not drawn) [Example 20, 5'-(3,6-Dihydro-2-oxo-2H-1,3,4-thiadiazin-5-yl)-spiro [thiolane-2,3'-[3H]-indol]-2'(1'H)-one]",-5 ± 3%,0.21 ± 0.05,,,"change in vivo at 3 mg/kg [1, 3]: 8%; change in vivo at 3 mg/kg [1, 4]: 45%"
"CC1SC(=O)NN=C1c1ccc2c(c1)C1(CCCS1)C(=O)N2 (stereo not drawn) [Example 21, 5'-(3,6-Dihydro-6-methyl-2-oxo-2H-1,3,4-thiadiazin-5-yl) -spiro-[thiolane-2,3'-[3H]-indol]-2'(1'H)-one]",,,9%,42%,Max ATPase activity (%) (percent change of ATPase activity for pCa=5.47) ([2]; 1 × 10^-5 molar): -7 ± 2%; Ca2+ sensitivity p CA50 (shift of the pCa giving 50% of the maximal control ATPase activity) ([2]; 1 × 10^-5 molar): 0.46 ± 0.04
"CC1SC(=O)NN=C1c1ccc2c(c1)C1(CCCC1)C(=O)N2C(=O)c1ccncc1 (stereo not drawn) [Example 27, 5'-(3 6-Dihydro-6-methyl-2-oxo-2H-1,3,4-thiadiazin-5-yl)-1'-[(4 pyridyl)carbonyl]-spiro[cyclopentane-1,3'-[3H]indol]-2'(1'H)-one]",+2 ± 5%,0.47 ± 0.10,,,"change in vivo at 1 mg/kg [1, 3]: 15%; change in vivo at 1 mg/kg [1, 4]: 63%"
"CC1SC(=O)NN=C1c1ccc2c(c1)CC(C)(C)C(=O)N2 (stereo not drawn) [Example 36, 3,4-Dihydro-6-(3,6-dihydro-6-methyl-2-oxo-2H-1,3,4-thiadiazin-5-yl)-3,3-dimethyl-2(1H)-quinolinone]",-4 ± 3%,0.33 ± 0.07,,,"change in vivo at 0.1 mg/kg [1, 3]: 7%; change in vivo at 0.1 mg/kg [1, 4]: 46%"

# Second part, led by results:
Max ATPase activity (%) (percent change of ATPase activity for pCa=5.47) ([2]; 3 × 10^-5 molar),Ca2+ sensitivity p CA50 (shift of the pCa giving 50% of the maximal control ATPase activity) ([2]; 3 × 10^-5 molar),Compound,"change in vivo at 0.3 mg/kg [1, 3]","change in vivo at 0.3 mg/kg [1, 4]",also measured
-11 ± 5%,0.58 ± 0.04,"CC1SC(=O)NN=C1c1ccc2c(c1)C1(SCCS1)C(=O)N2 (stereo not drawn) [Example 13, 5'-(3,6-Dihydro-6-methyl-2-oxo-2H-1,3,4 thiadiazin-5-yl) -spiro 1,3-dithiolane-2,3'-3H indol-2(1'H)-one]",15%,43%,
+4 ± 1%,0.71 ± 0.09,"CC1SC(=O)NN=C1c1ccc2c(c1)C1(SCCCS1)C(=O)N2 (stereo not drawn) [Example 14, 5'-(3,6-Dihydro-6-methyl-2-oxo-2H-1,3,4-thiadiazin-5-yl) -spiro[1,3-dithiane-2,3'-[3H]indol]-2(1'H)-one]",22%,30%,
-17 ± 4%,0.41 ± 0.07,CC1SC(=O)NN=C1c1ccc2c(c1)C1(CCCCC1)C(=O)N2 (stereo not drawn) [Example 17],,,"change in vivo at 3 mg/kg [1, 3]: 9%; change in vivo at 3 mg/kg [1, 4]: 40%"
-1 ± 2%,0.45 ± 0.05,"CC1SC(=O)NN=C1c1ccc2c(c1)C(C)(C)CC(=O)N2 (stereo not drawn) [Example 35, 3,4-Dihydro-6-(3,6-dihydro-6-methyl-2-oxo-2H-1,3,4-thiadiazin-5-yl)-4,4-dimethyl-2(1H)-quinolinone]",,,"change in vivo at 0.1 mg/kg [1, 3]: 20%; change in vivo at 0.1 mg/kg [1, 4]: 49%"
